Laboratory results published in patent EP2746260A1, “Substituted [1,2,4]triazole and imidazole compounds” (BASF SE, priority 2012, dated 2014).

Columns and labels:
Septoria tritici = assay: Preventative control of leaf blotch on wheat (Septtr P1), green house; assay type: in vivo; settings: 150ppm spray, inoculated following day, % diseased leaf area after 4 weeks, untreated control 100
Protocol: (§1) The stock solution were prepared: a mixture of acetone and/or dimethylsulfoxide and the wetting agent/emulsifier Wettol, which is based on ethoxylated alkylphenoles, in a relation (volume) solvent-emulsifier of 99 to 1 was added to 25 mg of the compound to give a total of 5 ml. Water was then added to total volume of 100 ml. This stock solution was diluted with the described solvent-emulsifier-water mixture to the given concentration.
4. Preventative control of leaf blotch on wheat caused by Septoria tritici (Septtr P1)
Leaves of pot-grown wheat seedling were sprayed to run-off with an aqueous suspension of the active compound or their mixture, prepared as described. The plants were allowed to air-dry. At the following day the plants were inoculated with an aqueous spore suspension of Septoria tritici. Then the trial plants were immediately transferred to a humid chamber at 18-22°C and a relative humidity close to 100 %. After 4 days the plants were transferred to a chamber with 18-22°C and a relative humidity close to 70 %. After 4 weeks the extent of fungal attack on the leaves was visually assessed as % diseased leaf area.

Botrytis cinerea [1] = assay: Activity against the grey mold in the microtiterplate test (Botrci); assay type: cell-based; settings: relative growth vs compound-free control (100%), 405 nm, 7 days after inoculation
Botrytis cinerea [2] = assay: Long lasting control of Botrytis cinerea on leaves of green pepper (Botrci P7), green house; assay type: in vivo; settings: 16ppm spray, inoculated 7 days after treatment, % diseased leaf area after 5 days, untreated control 90
Protocol: as §1
3. Long lasting control of Botrytis cinerea on leaves of green pepper (Botrci P7)
Young seedlings of green pepper were grown in pots to the 4 to 5 leaf stage. These plants were sprayed to run-off with an aqueous suspension, containing the concentration of active ingredient or their mixture mentioned in the table below. The plants were then cultivated in the greenhouse for 7 days and then inoculated with an aqueous biomalt solution containing the spore suspension of Botrytis cinerea. Then the plants were immediately transferred to a humid chamber. After 5 days at 22 to 24· C and a relative humidity close to 100 % the extent of fungal attack on the leaves was visually assessed as % diseased leaf area.

Botrytis cinerea [3] = assay: Preventative fungicidal control of Botrytis cinerea on leaves of green pepper (Botrci P1), green house; assay type: in vivo; settings: 150ppm spray, inoculated next day, % diseased leaf area after 5 days, untreated control 100
Protocol: as §1
2. Preventative fungicidal control of Botrytis cinerea on leaves of green pepper (Botrci P1)
Young seedlings of green pepper were grown in pots to the 4 to 5 leaf stage. These plants were sprayed to run-off with an aqueous suspension, containing the concentration of active ingredient or their mixture mentioned in the table below. The next day the plants were inoculated with an aqueous biomalt solution containing the spore suspension of Botrytis cinerea. Then the plants were immediately transferred to a humid chamber. After 5 days at 22 to 24· C and a relative humidity close to 100 % the extent of fungal attack on the leaves was visually assessed as % diseased leaf area.

Puccinia recondita = assay: Preventative control of brown rust on wheat (Puccrt P7), green house; assay type: in vivo; settings: 16ppm spray, inoculated seven days after treatment, % diseased leaf area, untreated control 90
Protocol: as §1
5. Preventative control of brown rust on wheat caused by Puccinia recondita (Puccrt P7)
The first two developed leaves of pot-grown wheat seedling were sprayed to run-off with an aqueous suspension, containing the concentration of active ingredient or their mixture as described below. Seven days later the plants were inoculated with spores of Puccinia recondita. To ensure the success the artificial inoculation, the plants were transferred to a humid chamber without light and a relative humidity of 95 to 99 % and 20 to 24· C for 24 h. Then the trial plants were cultivated for 6 days in a greenhouse chamber at 20-24 °C and a relative humidity between 65 and 70 %. The extent of fungal attack on the leaves was visually assessed as % diseased leaf area.

Phakopsora pachyrhizi = assay: Protective control of soy bean rust on soy beans (Phakpa P1), green house; assay type: in vivo; settings: 150ppm spray, inoculated 1 day after treatment, % diseased leaf area, untreated control 70
Pyricularia oryzae = assay type: cell-based; settings: relative growth vs compound-free control (100%), 405 nm, 7 days after inoculation

Compound	Growth (%) at 31ppm Botrci (Botrytis cinerea [1])	Disease (%) at 150ppm Phakpa P1 (Phakopsora pachyrhizi)	Growth (%) at 31ppm Pyrior (Pyricularia oryzae)	Growth (%) at 8ppm Pyrior (Pyricularia oryzae)	other results
CC(n1cncn1)C(O)(Cc1ccccc1Cl)C1(Cl)CC1 (stereo not shown) [Compound I-3]	1%	0%	0%		Disease (%) at 150ppm Septtr P1 (Septoria tritici): 3%; Disease (%) at 16ppm Botrci P7 (Botrytis cinerea [2]): 15%; Disease (%) at 150ppm Botrci P1 (Botrytis cinerea [3]): 0%; Disease (%) at 16ppm Puccrt P7 (Puccinia recondita): 3%
CC(c1ccccc1Cl)C(O)(C(C)n1ncnc1S)C1(Cl)CC1 (stereo not shown) [Compound I-7]	0%		0%	0%	
CC(c1ccccc1Cl)C(O)(C(C)n1cncn1)C1(Cl)CC1 (stereo not shown) [Compound I-1, 3-(1-Chlorocyclopropyl)-2-(2-chlorophenyl)-4-(1,2,4-triazol-1-yl)pentan-3-ol]	19%	10%	0%		
CC(n1cncn1)C(O)(Cc1ccc(Oc2ccc(Cl)cc2)cc1Cl)C1(Cl)CC1 (stereo not shown) [Compound I-4]		15%	6%		
OC(Cc1ccccc1Cl)(Cn1cncn1)C1(Cl)CC1 (stereo not shown) [Comparative 2, reference compound]					Disease (%) at 16ppm Botrci P7 (Botrytis cinerea [2]): 30%; Disease (%) at 16ppm Puccrt P7 (Puccinia recondita): 50%
CC(n1cncn1)C(O)(Cc1ccc(-c2ccc(Cl)cc2)cc1Cl)C1(Cl)CC1 (stereo not shown) [Compound I-5]			10%		
CC(n1ncnc1S)C(O)(Cc1ccccc1Cl)C1(Cl)CC1 (stereo not shown) [Compound I-6]		0%	0%	6%	
OC(Cc1ccccc1Cl)(Cn1ncnc1S)C1(Cl)CC1 (stereo not shown) [Comparative 1, reference compound]				33%	
